{"source": "patent US20080027140A1", "about": "“Combinations of Serotonin Reuptake Inhibitors and Imidazoline I 2 Agonists” (MERCK PATENT GMBH, priority 2004, published 2008)", "key": {"[1]": {"test_system": "extracellular 5-HT level in the frontal cortex", "assay": "Microdialysis studies: extracellular 5-HT level in the frontal cortex of rats", "assay_type": "in vivo"}, "rats": {"test_system": "rats", "assay": "Forced swimming test (animal model of depression)", "assay_type": "in vivo", "method": "A typical animal model of depression is the “forced swimming test” (R. D. Porsolt et al., Nature 1977; 266(5604): 730-732), which is carried out with rats. This model is based on the behaviour known as “behavioural despair”, which the animals show in a hopeless situation known to them: If the rats are placed in a water-filled vessel (usually for 15 minutes) from which they cannot escape, they cease their attempts to escape from the situation after a certain time and remain in immobility or make only the most necessary swimming movements. If the rats are subjected to this situation again the next day, they recognise the hopelessness of the situation and remain in immobility for the majority of the time, and the time which the animals spend in immobility (which is regarded as surrogate for depression) during the 5-minute test duration serves as a measure of the depression. Anti-depressants shorten this immobility time. Fluoxetine (5 mg/kg perorally) and 2-BFI (3 and 10 mg/kg perorally) are administered—individually or combined—either in accordance with a repeated acute scheme (fluoxetine 24 h, 5 h and 2 h; 2-BFI 24 h, 5 h and 1 h before commencement of the test) or in accordance with a subchronic scheme (fluoxetine or 2-BFI once daily for 7 days, on the final day fluoxetine 2 h and 2-BFI 1 h before commencement of the test)."}, "[2]": {"test_system": "extracellular level of serotonin (5-HT) in the brain", "settings": "fluoxetine alone, even at a relatively high dose; literature (Artigas et al.); cited from earlier work"}, "mice": {"test_system": "mice", "assay": "Marble burying test (animal model of anxiety states)", "assay_type": "in vivo", "settings": "3 mg/kg subcutaneously each substance, individually or combined at the same dose; 30 minutes test; FIG. 3", "method": "A typical animal model of anxiety states is the “marble burying test” (for example Njung'e and Handley, Br J Pharmacol 1991, 104: 105-112), which has, in particular, specificity for obsessive-compulsive disorders and obsessive-compulsive spectrum disorders. The experimental device consists of a cube-shaped box open at the top in which 25 clear glass marbles are arranged at uniform separations on a 5 cm deep layer of sawdust. Mice are placed individually in the test box for 30 minutes. The number of marbles buried in the sawdust during the test duration of 30 minutes serves as a measure of anxiety. Untreated mice bury the most marbles in the sawdust, anxiolytics reduce the number of buried marbles."}}, "note": "Entries after “also recorded” stand apart in the source; their conditions may differ.", "data": [{"compound": "CNCCC(Oc1ccc(C(F)(F)F)cc1)c1ccccc1", "note": "(stereo not drawn) [fluoxetine]", "values": [{"measurement": "effect on the extracellular 5-HT level", "setting": "[1]; fluoxetine alone, 10 mg/kg intraperitoneally, FIG. 2, 10 mg/kg", "value": "slightly raises; also recorded: only a slight increase"}, {"measurement": "immobility phase", "setting": "rats; repeated acute scheme, fluoxetine alone 5 mg/kg perorally, 24 h, 5 h and 2 h before test, FIG. 4", "value": "only a negligible effect"}, {"measurement": "immobility phase", "setting": "rats; subchronic scheme, once daily for 7 days, fluoxetine alone 5 mg/kg perorally, FIG. 5", "value": "Virtually identical effects"}, {"measurement": "approximately three-fold increase of the extracellular 5-HT level", "setting": "[2]", "value": "cannot be achieved"}, {"measurement": "number of buried marbles compared with vehicle-treated mice", "setting": "mice", "value": "reduced the number of buried marbles only slightly"}]}, {"compound": "c1ccc2oc(C3=NCCN3)cc2c1", "note": "[2-BFI, 2-(2-benzofuranyl)-2-imidazoline]", "values": [{"measurement": "effect on the extracellular 5-HT level in the frontal cortex", "setting": "[1]; 2-BFI alone, 20 mg/kg subcutaneously, FIG. 1", "value": "no effect"}, {"measurement": "immobility phase", "setting": "rats; repeated acute scheme, 2-BFI alone 3 and 10 mg/kg perorally, 24 h, 5 h and 1 h before test, FIG. 4", "value": "does not reduce the immobility phase"}, {"measurement": "immobility phase", "setting": "rats; subchronic scheme, once daily for 7 days, 2-BFI alone 3 and 10 mg/kg perorally, FIG. 5", "value": "Virtually identical effects"}, {"measurement": "number of buried marbles compared with vehicle-treated mice", "setting": "mice", "value": "reduced the number of buried marbles only slightly"}]}]}
